Assay results: ChEMBL document CHEMBL1201862, “PubChem BioAssay data set” (2004)
The source made the active and inactive calls.

Tests used:
[1] = target: T1, Carboxy-terminal domain RNA polymerase II polypeptide A small phosphatase 1 (Homo sapiens, UniProt Q9GZU7); experiment: CTDSP1 inhibitors, concentration-response, biochemical, absorbance readout, ultra-high-throughput screen actives (AID 540297); type: functional
T1 sequence (Q9GZU7 whole entry): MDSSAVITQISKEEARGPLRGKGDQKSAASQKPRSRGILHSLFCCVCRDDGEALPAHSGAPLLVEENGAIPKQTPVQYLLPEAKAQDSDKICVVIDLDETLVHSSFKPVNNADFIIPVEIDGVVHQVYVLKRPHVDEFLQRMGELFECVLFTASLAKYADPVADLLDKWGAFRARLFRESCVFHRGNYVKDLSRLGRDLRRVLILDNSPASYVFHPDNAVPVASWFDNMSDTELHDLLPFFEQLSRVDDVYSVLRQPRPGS

[2] = HEK-293T cell viability reduction – luminescence, B-cell screen hits, cytotoxicity control for BCR NF-kB inhibitor project, dose response (AID 489021); type: functional, cell-based;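 also: HEK-293T cells carrying an NF-kB luciferase reporter; cells exposed to compound for about 14 hours before viability readout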
Vero [3] = experiment: cells; type: functional; conditions: Chlorocebus sabaeus
[4] = Luminescence Cell-Based Dose Response HTS to Identify Activators of Luciferase Translation or Activity in H4 […] Cells. [Related pubchem assays: 1829 (Project Summary), 1814 (Primary HTS)]; type: functional
[5] = microbe, parasite or virus in culture; type: functional; conditions: Mycobacterium tuberculosis
Vero [6] = experiment: cells; type: functional, cell-based; conditions: Chlorocebus sabaeus
[7] = Luminescence Cell-Based Dose Confirmation HTS to Identify Activators of 5'UTR Stem-Loop Driven Alpha-Synuclein mRNA Translation in H4 Neuroglioblastoma Cells. [Related pubchem assays: 1829 (Project Summary), 1814 (Primary HTS)]; type: functional
H4 = experiment: Luminescence Cell-Based Dose Response HTS to Identify Activators of 5'UTR Stem-Loop Driven Prion Protein mRNA Translation in H4 Neuroglioblastoma Cells. [Related pubchem assays: 1829 (Project Summary), 1814 (Primary HTS)]; type: functional; conditions: Homo sapiens
[8] = OVCAR-3 cell viability loss – plate reader, dry powder samples, PAX8 inhibitor project, dose response (AID 743044); type: functional, cell-based
[9] = OVCAR8 cell viability loss – plate reader, dry powder samples, PAX8 project, dose response (AID 743197); type: functional, cell-based; conditions: OVCAR-8
Galanin receptor type 3 = target: T2, Galanin receptor type 3 (Homo sapiens, UniProt O60755); experiment: Fluorescence-based cell-based primary high throughput dose response assay to identify antagonists of the Galanin Receptor 3 (GalR3).; type: functional
T2 sequence (O60755 whole entry): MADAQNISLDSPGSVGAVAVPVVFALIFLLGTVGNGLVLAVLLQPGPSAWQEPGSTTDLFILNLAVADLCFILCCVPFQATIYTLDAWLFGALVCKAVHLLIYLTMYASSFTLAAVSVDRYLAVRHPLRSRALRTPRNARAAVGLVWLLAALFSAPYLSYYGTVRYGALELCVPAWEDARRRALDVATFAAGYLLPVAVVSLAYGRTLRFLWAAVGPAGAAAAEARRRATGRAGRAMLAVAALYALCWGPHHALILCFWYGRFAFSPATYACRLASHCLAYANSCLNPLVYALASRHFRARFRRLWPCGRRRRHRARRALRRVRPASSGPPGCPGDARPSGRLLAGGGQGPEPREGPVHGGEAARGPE

cells = type: functional, cell-based; conditions: HEK-CNG
[10] = NIH3T3 cell viability loss – ATP luminescence, mouse fibroblasts, counter-screen, dose response (AID 2010); type: functional, cell-based;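 also: cells exposed to compound for about 90 hours before reading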
[11] = Trypanosoma cruzi growth suppression in host cells – NIH3T3 host cells, beta-gal luminescence, confirmation (AID 2044); type: functional, cell-based;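 also: intracellular parasites grown in NIH/3T3 mouse fibroblasts as host cells; luminescent beta-galactosidase reporter signal from transgenic T. cruzi replicating inside host cells; inhibitors lower the luminescence signal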
CHO = CHO cell viability loss, potency – luminescence, cytotoxicity control for TLR9-MyD88 binding inhibitor project, dose response (AID 588339); type: functional, cell-based, hamster; conditions: Cricetulus griseus;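 also: CHO cells stably coexpressing TLR9 and MyD88 fusions from primary screen; compound exposure lasted 48 hours before viability readout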
Beta Lactamase = Beta Lactamase (Pseudomonas aeruginosa, UniProt Q932Y6); experiment: BLA reporter interference, concentration series – BLA reporter cells, FRET fluorescence, artefact control for TLR9-MyD88 binding inhibitor project, dose response (AID 588341); type: cell-based;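 also: cell based assay in CHO-K1 cells stably expressing beta-lactamase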
[12] = target: Ras and Rab interactor 1/Tyrosine-protein kinase ABL1 (Homo sapiens, UniProt P00519+Q13671); type: functional;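 also: biochemical TR-FRET dose-response test measuring inhibition of binding between Rin1 and Abl proteins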
Streptococcus = experiment: GAS UMAA2166 growth inhibition – luminescence, BacTiterGlo, counter-screen for streptokinase expression inhibitor project, dose response (AID 1915); type: functional, organism-based;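 also: potency for reduction of bacterial viability or growth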
Beta-galactosidase = Beta-galactosidase (Escherichia coli, UniProt Q8VNN2); experiment: detection-enzyme interference by beta-gal modulators – biochemical, E. coli enzyme, set 3, artefact control for CCR6 antagonist project, dose response (AID 504712); type: functional
[13] = tested on: Streptococcus sp. 'group A'; experiment: Streptococcus pyogenes SK(-)GAS viability under kanamycin – luminescence, BacTiterGlo, confirmation, counter-screen for streptokinase expression inhibitor project, dose response (AID 1900); type: functional, organism-based
[14] = target: T3, Short transient receptor potential channel 4 (Mus musculus, UniProt Q9QUQ5); experiment: calcium entry via TRPC4 opening agents – cell-based, HEK293 TRPC4/mu-opioid, Fluo-4 calcium, dose response (AID 434937); type: functional
T3 sequence (Q9QUQ5 whole entry): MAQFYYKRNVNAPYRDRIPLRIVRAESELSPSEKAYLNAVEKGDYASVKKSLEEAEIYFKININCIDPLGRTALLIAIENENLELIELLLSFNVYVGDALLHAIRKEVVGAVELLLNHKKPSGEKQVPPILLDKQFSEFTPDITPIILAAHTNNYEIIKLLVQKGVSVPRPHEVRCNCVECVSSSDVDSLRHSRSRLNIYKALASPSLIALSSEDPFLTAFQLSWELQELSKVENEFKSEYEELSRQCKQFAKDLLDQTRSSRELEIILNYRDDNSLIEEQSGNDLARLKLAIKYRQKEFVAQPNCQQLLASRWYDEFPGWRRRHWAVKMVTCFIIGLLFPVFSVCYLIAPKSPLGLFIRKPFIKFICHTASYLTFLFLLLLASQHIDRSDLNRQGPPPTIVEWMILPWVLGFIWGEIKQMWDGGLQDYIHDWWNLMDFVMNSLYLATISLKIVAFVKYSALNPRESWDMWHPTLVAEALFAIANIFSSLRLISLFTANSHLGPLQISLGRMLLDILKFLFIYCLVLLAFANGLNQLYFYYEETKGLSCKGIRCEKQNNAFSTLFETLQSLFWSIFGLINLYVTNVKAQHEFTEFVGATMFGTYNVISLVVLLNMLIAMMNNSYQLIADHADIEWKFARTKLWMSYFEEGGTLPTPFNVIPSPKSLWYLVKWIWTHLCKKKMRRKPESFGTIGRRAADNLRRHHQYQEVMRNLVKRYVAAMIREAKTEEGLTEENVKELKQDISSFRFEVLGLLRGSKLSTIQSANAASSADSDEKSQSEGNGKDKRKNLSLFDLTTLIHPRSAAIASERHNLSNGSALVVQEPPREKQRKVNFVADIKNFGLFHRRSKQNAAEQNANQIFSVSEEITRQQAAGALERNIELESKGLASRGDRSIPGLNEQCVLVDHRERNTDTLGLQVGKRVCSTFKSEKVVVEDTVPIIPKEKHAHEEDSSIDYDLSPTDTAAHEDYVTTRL

Cytochrome P450 1A2 = target: T4, Cytochrome P450 1A2 (Homo sapiens, UniProt P05177);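 also: PubChem cytochrome P450 panel assay, CYP1A2 panel member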
T4 sequence (P05177 whole entry): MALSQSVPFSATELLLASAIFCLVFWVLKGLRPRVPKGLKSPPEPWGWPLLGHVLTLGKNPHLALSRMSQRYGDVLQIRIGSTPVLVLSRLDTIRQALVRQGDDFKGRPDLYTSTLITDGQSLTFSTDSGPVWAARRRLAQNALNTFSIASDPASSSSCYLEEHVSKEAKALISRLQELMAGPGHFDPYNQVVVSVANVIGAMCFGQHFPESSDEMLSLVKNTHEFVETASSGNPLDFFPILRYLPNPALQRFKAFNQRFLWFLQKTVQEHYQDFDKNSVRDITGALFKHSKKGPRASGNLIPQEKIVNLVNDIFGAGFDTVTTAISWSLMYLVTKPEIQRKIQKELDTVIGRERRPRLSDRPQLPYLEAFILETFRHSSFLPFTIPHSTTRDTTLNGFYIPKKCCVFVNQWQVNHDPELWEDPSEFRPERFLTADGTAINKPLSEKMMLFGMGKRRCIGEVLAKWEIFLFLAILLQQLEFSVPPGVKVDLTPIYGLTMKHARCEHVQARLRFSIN

[15] = target: T5, Corticotropin-releasing factor receptor 2/Corticotropin-releasing factor-binding protein (Homo sapiens, UniProt P24387+Q13324); experiment: activators of CRF receptor 2 with binding protein – uHTS hits, confirmation (AID 602473); type: functional; conditions: read-out: EC50_Mean
T5 sequence (Q13324 whole entry): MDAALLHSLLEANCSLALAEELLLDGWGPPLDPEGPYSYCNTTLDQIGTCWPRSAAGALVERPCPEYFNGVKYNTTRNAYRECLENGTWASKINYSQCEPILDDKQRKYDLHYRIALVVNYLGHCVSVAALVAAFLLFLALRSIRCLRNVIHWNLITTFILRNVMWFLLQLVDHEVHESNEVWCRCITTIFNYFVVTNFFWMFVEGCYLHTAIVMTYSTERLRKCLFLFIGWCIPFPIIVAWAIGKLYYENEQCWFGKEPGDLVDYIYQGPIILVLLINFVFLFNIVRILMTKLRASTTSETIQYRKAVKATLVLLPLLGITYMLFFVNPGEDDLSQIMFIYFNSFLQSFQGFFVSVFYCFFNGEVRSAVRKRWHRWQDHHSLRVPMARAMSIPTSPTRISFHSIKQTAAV
T5 sequence (P24387 whole entry): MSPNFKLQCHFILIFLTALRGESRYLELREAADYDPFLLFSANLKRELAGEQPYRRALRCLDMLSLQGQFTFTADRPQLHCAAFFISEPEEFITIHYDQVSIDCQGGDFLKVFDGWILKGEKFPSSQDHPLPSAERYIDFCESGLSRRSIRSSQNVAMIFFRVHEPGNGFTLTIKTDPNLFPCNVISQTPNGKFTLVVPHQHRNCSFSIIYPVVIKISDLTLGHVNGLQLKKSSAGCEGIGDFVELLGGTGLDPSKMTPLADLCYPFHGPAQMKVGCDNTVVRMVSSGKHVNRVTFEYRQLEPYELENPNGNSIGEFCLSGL

Sequence of Ras and Rab interactor 1/Tyrosine-protein kinase ABL1 (P00519 whole entry): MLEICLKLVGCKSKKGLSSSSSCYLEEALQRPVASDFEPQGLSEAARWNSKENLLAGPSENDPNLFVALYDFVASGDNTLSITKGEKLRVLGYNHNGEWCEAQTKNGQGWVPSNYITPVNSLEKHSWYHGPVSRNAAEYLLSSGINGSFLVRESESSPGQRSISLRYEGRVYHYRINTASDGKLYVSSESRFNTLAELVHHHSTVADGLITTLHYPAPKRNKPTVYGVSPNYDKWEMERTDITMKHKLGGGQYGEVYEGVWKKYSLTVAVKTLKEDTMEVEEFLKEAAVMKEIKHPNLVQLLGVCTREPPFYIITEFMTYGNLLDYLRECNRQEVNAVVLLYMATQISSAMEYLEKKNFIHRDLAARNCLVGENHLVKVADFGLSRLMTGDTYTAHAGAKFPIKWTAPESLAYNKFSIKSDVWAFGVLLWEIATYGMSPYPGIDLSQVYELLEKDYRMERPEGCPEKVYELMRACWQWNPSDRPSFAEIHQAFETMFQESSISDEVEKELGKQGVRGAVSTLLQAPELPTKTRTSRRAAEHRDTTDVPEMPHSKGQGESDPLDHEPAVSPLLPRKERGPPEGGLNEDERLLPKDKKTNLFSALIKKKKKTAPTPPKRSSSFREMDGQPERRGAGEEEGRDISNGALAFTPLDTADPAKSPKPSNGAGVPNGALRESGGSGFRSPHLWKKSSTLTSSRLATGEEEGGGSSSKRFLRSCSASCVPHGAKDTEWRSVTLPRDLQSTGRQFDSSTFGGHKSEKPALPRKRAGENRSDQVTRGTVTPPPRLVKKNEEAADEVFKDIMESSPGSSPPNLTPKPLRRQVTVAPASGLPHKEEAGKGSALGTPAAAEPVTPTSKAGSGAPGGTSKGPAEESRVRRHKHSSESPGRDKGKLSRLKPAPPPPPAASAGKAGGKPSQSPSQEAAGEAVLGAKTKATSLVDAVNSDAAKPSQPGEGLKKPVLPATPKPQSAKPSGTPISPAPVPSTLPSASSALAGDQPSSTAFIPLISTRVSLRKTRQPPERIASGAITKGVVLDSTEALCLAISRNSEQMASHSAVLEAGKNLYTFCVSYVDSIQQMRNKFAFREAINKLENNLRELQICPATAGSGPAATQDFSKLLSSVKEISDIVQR
Sequence of Ras and Rab interactor 1/Tyrosine-protein kinase ABL1 (Q13671 whole entry): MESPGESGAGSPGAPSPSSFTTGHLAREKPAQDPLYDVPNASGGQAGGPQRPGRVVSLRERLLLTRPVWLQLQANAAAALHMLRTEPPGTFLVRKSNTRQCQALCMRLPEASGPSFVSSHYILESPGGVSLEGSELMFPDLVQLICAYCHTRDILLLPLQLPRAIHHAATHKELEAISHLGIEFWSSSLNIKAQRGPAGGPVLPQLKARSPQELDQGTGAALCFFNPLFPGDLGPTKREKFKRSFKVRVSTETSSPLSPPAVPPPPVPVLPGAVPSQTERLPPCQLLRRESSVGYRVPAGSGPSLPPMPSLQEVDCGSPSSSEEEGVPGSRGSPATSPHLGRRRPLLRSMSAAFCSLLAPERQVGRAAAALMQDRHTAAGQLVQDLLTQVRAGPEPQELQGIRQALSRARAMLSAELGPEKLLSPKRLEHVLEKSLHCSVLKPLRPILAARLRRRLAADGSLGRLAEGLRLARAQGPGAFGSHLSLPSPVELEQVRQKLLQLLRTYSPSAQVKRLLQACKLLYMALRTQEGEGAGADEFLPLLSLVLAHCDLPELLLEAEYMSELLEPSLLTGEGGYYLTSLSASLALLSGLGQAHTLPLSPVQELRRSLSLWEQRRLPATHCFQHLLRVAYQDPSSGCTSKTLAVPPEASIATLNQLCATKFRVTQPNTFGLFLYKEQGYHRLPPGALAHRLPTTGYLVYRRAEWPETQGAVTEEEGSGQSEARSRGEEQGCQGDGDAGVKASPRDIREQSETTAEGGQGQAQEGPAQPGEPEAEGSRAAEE
Sequence of Beta Lactamase (Q932Y6 whole entry): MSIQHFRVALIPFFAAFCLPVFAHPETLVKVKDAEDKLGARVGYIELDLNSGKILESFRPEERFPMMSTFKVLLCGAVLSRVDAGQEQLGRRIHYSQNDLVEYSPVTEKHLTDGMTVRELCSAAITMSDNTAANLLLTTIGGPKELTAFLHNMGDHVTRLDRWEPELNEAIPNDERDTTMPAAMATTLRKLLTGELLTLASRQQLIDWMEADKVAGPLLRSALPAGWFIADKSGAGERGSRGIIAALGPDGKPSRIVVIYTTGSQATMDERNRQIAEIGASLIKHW
Sequence of Beta-galactosidase (Q8VNN2 whole entry): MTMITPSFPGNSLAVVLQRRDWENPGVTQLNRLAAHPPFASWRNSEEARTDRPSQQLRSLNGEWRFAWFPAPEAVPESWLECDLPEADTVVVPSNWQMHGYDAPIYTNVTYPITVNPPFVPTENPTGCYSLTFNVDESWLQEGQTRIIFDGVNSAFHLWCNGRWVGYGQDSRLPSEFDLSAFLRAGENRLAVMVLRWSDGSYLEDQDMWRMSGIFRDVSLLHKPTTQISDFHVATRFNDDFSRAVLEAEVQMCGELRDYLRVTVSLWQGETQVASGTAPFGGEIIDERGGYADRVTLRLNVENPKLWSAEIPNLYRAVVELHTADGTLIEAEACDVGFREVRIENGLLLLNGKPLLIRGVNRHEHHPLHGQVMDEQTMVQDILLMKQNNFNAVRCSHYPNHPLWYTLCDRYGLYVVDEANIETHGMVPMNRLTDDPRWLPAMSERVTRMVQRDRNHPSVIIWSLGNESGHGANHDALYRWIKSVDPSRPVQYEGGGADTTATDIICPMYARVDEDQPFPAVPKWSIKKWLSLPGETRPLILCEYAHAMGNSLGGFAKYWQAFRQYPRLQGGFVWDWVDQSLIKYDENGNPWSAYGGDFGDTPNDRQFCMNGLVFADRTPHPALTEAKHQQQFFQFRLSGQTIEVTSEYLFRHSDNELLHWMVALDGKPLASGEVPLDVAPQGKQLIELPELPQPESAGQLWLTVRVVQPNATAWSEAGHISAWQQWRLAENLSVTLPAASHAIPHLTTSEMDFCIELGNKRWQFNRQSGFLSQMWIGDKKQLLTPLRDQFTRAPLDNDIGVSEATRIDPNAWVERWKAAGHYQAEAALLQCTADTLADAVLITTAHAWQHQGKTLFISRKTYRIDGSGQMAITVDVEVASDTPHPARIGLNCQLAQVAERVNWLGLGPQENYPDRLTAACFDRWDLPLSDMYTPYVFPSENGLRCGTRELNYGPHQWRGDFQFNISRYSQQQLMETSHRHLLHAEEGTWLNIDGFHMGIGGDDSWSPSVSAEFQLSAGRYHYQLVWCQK

Question: Which results are given for `COc1ccc(/C=C2\SC(=S)N(CCC(=O)Nc3ccc(C(=O)O)cc3)C2=O)cc1`?
Answer: IC50 [1]: 2.63 µM (active); IC50 [2]: > 80 µM (inactive)

Question: With `CC(C)C1N=C(c2ccc3c(c2)OCO3)CC(c2ccccc2O)N1` (centres undefined) as the molecule, how does the CC50 (Vero [3]) read?
Answer: Its CC50 is 14.7 µM (active).

Question: And the EC50 [4]?
Answer: The EC50 was 15.4 µM (active).

Question: And the CC50 [5]?
Answer: The CC50 was 13.8 µM (active).

Question: And the IC50 (Vero [6])?
Answer: Its IC50 is > 25 µM (active).

Question: And the EC50 [7]?
Answer: Its EC50 is 16.6 µM (active).

Question: What about the EC50 (H4) of the same molecule?
Answer: The EC50 was 4.62 µM (active).

Question: What does the source list for `C[C@@H]1CN([C@H](C)CO)C(=O)c2cc(NC(=O)Cc3ccccc3)ccc2O[C@@H](C)CCCCO[C@H]1CN(C)Cc1ccc(Cl)c(Cl)c1`?
Answer: AC50 [8]: 28.2 µM (active); AC50 [9]: > 70 µM (inactive)

Question: For `CC1(C)CC2CC(C)(CN2S(=O)(=O)c2ccc(C(=O)Nc3ccc(S(=O)(=O)N4CCOCC4)cc3)cc2)C1` (centres undefined), which IC50 (Galanin receptor type 3) is on record?
Answer: Its IC50 is 0.96 µM (active).

Question: And the EC50 (cells)?
Answer: Its EC50 is > 29.9 µM (inactive).

Question: What about the IC50 [2] of the same molecule?
Answer: Its IC50 is > 80 µM (inactive).

Question: And the EC50 [10]?
Answer: The EC50 was > 60 µM (not active).

Question: And the EC50 [11]?
Answer: Its EC50 is 1.83 µM (active).

Question: With `Cn1c(-c2c(N)n(-c3ccccc3)c3nc4ccccc4nc23)nc2ccccc21` as the molecule, how does the IC50 (CHO) read?
Answer: The IC50 was > 49.7 µM (inactive).

Question: And the IC50 (Beta Lactamase)?
Answer: The IC50 was 3.85 µM (active).

Question: With `CC12CCC(=O)N1C(C(=O)N1CCN(S(=O)(=O)c3ccc(Br)cc3Cl)CC1)CS2` (centres undefined) as the molecule, how does the IC50 [12] read?
Answer: Its IC50 is 17 µM (inactive).

Question: Which IC50 [12] does the source give for `COc1cc(/C=N/NC(=O)CSc2ccccn2)ccc1OC(C)C` here?
Answer: The IC50 was 19.1 µM (inactive).

Question: With `Cc1ccc(C(=O)NNC(=S)NC(=O)c2ccccc2)cc1` as the molecule, how does the EC50 (Streptococcus) read?
Answer: The EC50 was 4.44 µM (active).

Question: And the CC50 (Vero [3])?
Answer: The CC50 was 24.8 µM (active).

Question: What about the IC50 (Beta-galactosidase) of the same molecule?
Answer: Its IC50 is > 66.6 µM (inactive).

Question: And the IC50 (Vero [6])?
Answer: The IC50 was 12 µM (active).

Question: And the EC50 [13]?
Answer: The EC50 was 1.47 µM (active).

Question: And the EC50 [14]?
Answer: Its EC50 is 2.66 µM (active).

Question: With `c1nnc(NCNc2nncs2)s1` as the molecule, how does the AC50 (Cytochrome P450 1A2) read?
Answer: Its AC50 is 2 µM (inconclusive).

Question: What about the CC50 (Vero [3]) of the same molecule?
Answer: The CC50 was > 25 µM (active).

Question: What about the EC50 [15] of the same molecule?
Answer: The EC50 was > 53 µM (inactive).

Question: And the IC50 (Vero [6])?
Answer: Its IC50 is > 25 µM (active).
